Results on one molecule are retold here after patent US7675626B2, “Method of detecting drug resistant microorganisms by surface plasmon resonance system” (priority 2006, dated 2010).

“And” between values parts separate entries of the source, which are not always exact repeats. Equal entries are not always repeated.

Test [1] deals with ampicillin susceptible strain (JM109). Kind of test: SPR angle shift, ampicillin sensitivity test (susceptible strain). In kind it is cell-based, E. coli. The following applies: for susceptible surface plasmon resonance angle shift/resistant surface plasmon resonance angle shift: ratio susceptible/resistant strain. The source says: (§1) On setting up the surface plasmon resonance, a He—Ne laser (wavelength=632.8 nm) was used as the light source. The laser beam passed through the polarizer to block […], and only p-polarization component could excite surface plasmon. The transmitted p-polarization beam was split into two beams via beam splitter (BS), one beam was detected by photodiode as reference light, and the other beam injected into prism at specific range of angles to decide surface plasmon angle. The reflected light was detected via the photodiode in the opposite side of prism as signal light. Surface plasmon was excited on Au metal film deposited on flat glass surface which attached on prism via matching oil. The current signal detected by photodiode was expanded via amplifier and transformed into voltage signal via 16-bit A/D converter (Adventech PCI-1716) The Y-axial represented the ratio of reference light and signal light, X-axial represented the incident angle of interface between prism and sample. Incident angle was controlled by controller which motor motorized stage with two arms. When surface plasmon resonance angle was detected, the energy of injected light was absorbed and surface plasmon resonance was achieved. This experimental setup was build by National Cheng-Kung University, department of Engineering Science, Adaptic Photonic Lab.
(§2) The bacteria used herein were JM109 strain, which was recA1 mutation that helped ensure insert stability. EndA1 mutation improved the quality of the plasmid miniprep DNA. HsdR17 mutation prevented the cleavage of cloned DNA by an endogenous endonuclease system.
(§3) Penicillin was referred to β-lactam drugs because of the importance of the β-lactam ring. An intact ting structure was essential for antibacterial activity. The cleavage of the ring by penicillinase (β-lactamase) inactivated the drug. The antibiotic bacteria strain used herein was transformed by ampicillin resistant plasmid that translated β-lactamase to cleave the ring of ampicillin. The bacteria was picked out by loop and planted in 5 ml LB broth over night, then transferred into 100 ml LB and incubated for two hours.
(§4) Diluted Poly-L-Lysine solution with deionized water prior to coating slides. The flat glass surface deposited with Au metal film was immersed in poly-L-lysine solution (concentration is […]) for at least 24 hours to interact with Au metal film, cells can be immobilized on biochips after incubation.
(§5) The sterilized DI water was injected into the flow chamber for 30 min to stabilize the system when biochip coated with poly-L-lysine was assembled. After balancing, the incubated LA broth was injected into the flow chamber for 210 minutes to cover the AU metal film. Subsequently, antibiotic solution was injected, and the surface plasmon resonance curve was observed on the computer.
(§6) Surface plasmon resonance system measured SPR angle continuously, and compared SPR curve of antibiotic susceptible and antibiotic resistant strain under the same condition. The SPR curve of antibiotic resistant strain was depicted in FIG. 2, and antibiotic susceptible strain SPR curve was depicted in FIG. 3. Experimental data represented that after 30 minutes of balance of the SPR system, the injection of bacteria LB broth increased the SPR angle. After 210 minutes, the extra bacteria were washed with deionized water and presented the decrease of SPR angle, then balanced for 10-20 minutes. Antibiotic solution was injected after the balance curve. […]

Test [2] has as its system ampicillin resistant strain (JM109 transformed by ampicillin resistant plasmid). Kind of test: SPR angle shift, ampicillin resistance test (resistant strain). Format: cell-based, E. coli.
Text: as §1, §2, §3, §4, §5, §6

As for `CC1(C)S[C@@H]2[C@H](NC(=O)[C@H](N)c3ccccc3)C(=O)N2[C@H]1C(=O)O` [ampicillin], in test [1] (Average of 4 repeats), the “Ampicillin susceptible surface plasmon resonance angle shift” value was −0.0659. In addition, the “susceptible surface plasmon resonance angle shift/resistant surface plasmon resonance angle shift” value is 2.377 in test [1] (Average of 4 repeats); 1.9834 and 2.6208 and 3.2312 and 1.6729 in test [1] (single repeat experiments). Also, the “drop of SPR angle” value in test [1] (standard kinetic plot (FIG. 3), after injection of antibiotics) is given as −0.06876 degree; in test [1] (thirty minutes after antibiotic treatment (FIG. 5)), −0.01702 degree; in test [2] (standard kinetic plot (FIG. 2), after injection of antibiotics) it was −0.02128 degree; in test [2] (thirty minutes after antibiotic treatment (FIG. 4)) it was −0.00332 degree. Besides, in test [2] (Average of 4 repeats), the “Ampicillin resistant surface plasmon resonance angle shift” value was −0.02935. For the same molecule, the “drop of SPR angle of resistant strain compared to susceptible strain” value is recorded as “approximately ⅓” in test [2] (standard kinetic plot (FIGS. 2, 3)) and “approximately ⅕” in test [2] (thirty minutes after antibiotic treatment).
